Experimental data published in patent US11318108B2, “Use of carotenoid derivatives to reduce the toxicity and increase the efficacy of anti-EGFR antitumor treatments” (ASSOCIAZIONE ONCOLOGICA MILANESE AMO LA VITA ONLUS, priority 2017, dated 2022).

How the values were obtained:
[1] = system: cutaneous and/or mucosal toxicity induced by anti-EGFR drugs; assay: administration of lycopene to patients treated with anti-EGFR drugs; format: in vivo
Description: The regression has been so significant that patients, who could not shave the beard before the treatment with lycopene, could perform normal shaving after 2 weeks from the daily administration of lycopene.

[2] = cited from earlier work
[3] = patients affected by paronychia due to anti-EGFR drugs
[4] = dosage of treatment group A (6.5 mg tablets, 3 tablets/day)

CC(C)=CCC/C(C)=C/C=C/C(C)=C/C=C/C(C)=C/C=C/C=C(C)/C=C/C=C(C)/C=C/C=C(\C)CCC=C(C)C [lycopene]
regression of pustular injuries ([1]; male patients of age between 35 and 55 years treated with anti-EGFR drugs, already presenting pustular injuries): significant regression | time from daily administration until normal shaving possible ([1]; male patients who could not shave the beard before treatment, daily administration): 2 weeks | functional ability of hand fingers [1, 3]: recover the lost functional ability | nail growth and strength [1, 3]: recover the normal nail growth and strength | pain condition in paronychia [1, 3]: improvement of the pain condition | inflammation of paronychia ([1]; patients affected by paronychia due to anti-EGFR drugs with functional disabling of the hand fingers): resolution of the inflammation | regression of the rosiness (diffuse erythema of the face) ([1]; patients treated with anti-EGFR drugs): significant regression of the rosiness | onset/extension of rosiness coloration ([1]; some patients not yet affected by erythema): delayed and/or decreased the extension of such coloration | side effects during chronic intake ([2]; chronic intake, several studies): absence of relevant side effects | observed safe level of intake (OSL) ([2]; chronic intake): up to 75 mg/day | antioxidant effects at the trial dosage [2, 4]: significant antioxidant effects | side effects at the trial dosage [2, 4]: not to have relevant side effects
